Values joined by “and” are separate entries in the source; they are usually repeats but may differ in a detail not shown here. Equal values may be shown once.
Test system: Rats
Assay: Conditioned avoidance behavior in rats
Type: in vivo, rat
Text: Conditioned Avoidance Behavior in Rats:
In a conditioned avoidance test, animals learn to respond during a conditioned stimulus in order to avoid mild shock presentation. A response during the conditioned stimulus is termed an avoidance response, a response during shock is termed an escape response; a response failure is when the animal fails to respond during either the conditioned stimulus or the shock presentation and is indicative of motor impairment. […] Antipsychotic drugs decrease the percentage of avoidance responses without interfering with the ability of the animal to respond since the animals do emit escape responses. The percentage of response failures is considered a measure of motor impairment.
Rats were required to press a response lever in an experimental chamber in order to avoid or escape foot-shock. Each experimental session consisted of 50 trials. During each trial, the chamber was illuminated and a tone presented for a maximum of 10 sec. A response during the tone immediately terminated the tone and the houselight, ending the trial. In the absence of a response during the tone alone, tone+foot-shock (2.0 mA) was presented for a maximum of 10 sec. A response during shock presentation immediately terminated the shock, the tone and the houselights ending the trial.
If the effects are simply additive the results will be additive. If the effects of are synergistic, then the dose of second component required to produce full efficacy will be decreased.

[1] = first component dose 0.16 in combination with Xanomeline dose 10
[2] = first component dose 0.32 in combination with Xanomeline dose 10
[3] = first component dose 0.625 in combination with Xanomeline dose 10
[4] = first component dose 1.25 in combination with Xanomeline dose 10
[5] = first component dose 2.5 in combination with Xanomeline dose 10
[6] = Xanomeline dose 10 with first component dose 0 (combination series)
[7] = first component dose 0.001 in combination with Xanomeline dose 10
[8] = first component dose 0.003 in combination with Xanomeline dose 10
[9] = first component dose 0.01 in combination with Xanomeline dose 10
[10] = first component dose 0.03 in combination with Xanomeline dose 10
[11] = given alone, dose 0.03 (dose unit not given)
[12] = first component dose 0.1 in combination with Xanomeline dose 10
[13] = first component dose 0.3 in combination with Xanomeline dose 10

Row | Structure (SMILES) | % Avoidance Responses ± SEM (given alone, dose 10) | % Response Failures ± SEM (given alone, dose 10) | % Avoidance Responses ± SEM (given alone, dose 1) | % Response Failures ± SEM (given alone, dose 1) [%] | % Avoidance Responses ± SEM (given alone, dose 3) | % Avoidance Responses ± SEM [7] [%] | % Avoidance Responses ± SEM [8] [%] | % Avoidance Responses ± SEM [9] [%] | % Avoidance Responses ± SEM [10] [%] | % Avoidance Responses ± SEM [11] [%] | % Avoidance Responses ± SEM (given alone, dose 0.1) [%] | % Avoidance Responses ± SEM (given alone, dose 0.3) [%] | % Response Failures ± SEM [9] [%] | % Response Failures ± SEM [10] [%] | % Avoidance Responses ± SEM [12] [%] | % Avoidance Responses ± SEM [13] [%] | % Response Failures ± SEM (given alone, dose 0.1) [%] | % Response Failures ± SEM (given alone, dose 0.3) [%] | also measured
1 | CN(C)CCCN1c2ccccc2Sc2ccc(Cl)cc21 [Chlorpromazine] | 10 ± 4% | 16 ± 8% | – | – | – | – | – | – | – | – | – | – | – | – | – | – | – | – | % Avoidance Responses ± SEM [1]: 56 ± 11%; % Response Failures ± SEM [1]: 1 ± 1%; % Avoidance Responses ± SEM [2]: 46 ± 22%; % Response Failures ± SEM [2]: 19 ± 19%; % Avoidance Responses ± SEM [3]: 30 ± 17%; % Response Failures ± SEM [3]: 0 ± 0%; % Avoidance Responses ± SEM [4]: 20 ± 10%; % Response Failures ± SEM [4]: 8 ± 7%; % Avoidance Responses ± SEM [5]: 22 ± 7%; % Response Failures ± SEM [5]: 1 ± 0%; % Avoidance Responses ± SEM (given alone, dose 1.25): 99 ± 1%; % Response Failures ± SEM (given alone, dose 1.25): 0 ± 0%; % Avoidance Responses ± SEM (given alone, dose 2.5): 96 ± 4%; % Response Failures ± SEM (given alone, dose 2.5): 0 ± 0%; % Avoidance Responses ± SEM (given alone, dose 5): 27 ± 12%; % Response Failures ± SEM (given alone, dose 5): 7 ± 5%
2 | CCCCCCOc1nsnc1C1=CCCN(C)C1 [Xanomeline, 3-(4-hexyloxy-1,2,5-thiadiazol-3-yl)-1,2,5,6-tetrahydro-1-methylpyridine] | 44 ± 18% and 78 ± 12% and 63 ± 18% | 2 ± 1% and 1 ± 0% | 98 ± 2% and 99 ± 0% | 0 ± 0 | 93 ± 3% and 99 ± 1% | – | – | – | – | – | – | – | – | – | – | – | – | – | % Avoidance Responses ± SEM [6]: 87 ± 9% and 56 ± 13% and 72 ± 13%; % Response Failures ± SEM [6]: 0 ± 0%; % Response Failures ± SEM (given alone, dose 3): 0 ± 0%; % Avoidance Responses ± SEM (given alone, dose 17.5): 11 ± 4%; % Response Failures ± SEM (given alone, dose 17.5): 2 ± 1%
3 | Cc1nc2n(c(=O)c1CCN1CCC(c3noc4cc(F)ccc34)CC1)CCCC2 [Risperidone, 3-[2-[4-(6-fluoro-1,2-benzisoxazol-3-yl)piperidino]ethyl]-2-methyl-6,7,8,9-tetrahydro-4H-pyrido[1,2-a]pyrimidin-4-one] | – | – | 2 ± 1% | – | – | 48 ± 8 | 48 ± 16 | 23 ± 14 | 8 ± 2 | 100 ± 0 | 91 ± 5 | 37 ± 11 | – | – | – | – | – | – | –
4 | OCCN1CCN(CCCN2c3ccccc3Sc3ccc(C(F)(F)F)cc32)CC1 [Fluphenazine] | – | – | 33 ± 6% | 28 ± 9 | – | – | – | 77 ± 12 | 52 ± 12 | – | 100 ± 0 | 67 ± 9 | 1 ± 0 | 3 ± 2 | 66 ± 11 | 33 ± 16 | 0 ± 0 | 2 ± 1 | % Response Failures ± SEM [12]: 0 ± 0%; % Response Failures ± SEM [13]: 6 ± 6%
5 | Cc1cc2c(s1)Nc1ccccc1N=C2N1CCN(C)CC1 [Olanzapine, 2-methyl-4-(4-methyl-1-piperazinyl)-10H-thieno[2,3-b][1,5]benzodiazepine] | 2 ± 1% | – | 98 ± 1% | – | 59 ± 16% | – | – | 66 ± 11 | 47 ± 12 | – | – | – | – | – | 56 ± 6 | 53 ± 14 | – | – | % Avoidance Responses ± SEM (first component dose 1.0 in combination with Xanomeline dose 10): 9 ± 6%
6 | O=C(CCCN1CCC(O)(c2ccc(Cl)cc2)CC1)c1ccc(F)cc1 [Haloperidol] | – | – | – | – | – | 70 ± 12 | 45 ± 13 | 57 ± 6 | 27 ± 8 | 98.0 ± 1.0 | 59.0 ± 13.0 | 10.0 ± 2.0 | 1 ± 0 | 8 ± 6 | – | – | 2 ± 1 | 25 ± 12 | % Response Failures ± SEM [7]: 5 ± 3%; % Response Failures ± SEM [8]: 14 ± 11%; % Response Failures ± SEM (given alone, dose 0.03 (dose unit not given), measure of motor impairment): 1 ± 0%
